Measured values from US20250059188A1, “ARYLSULPHONAMIDE COMPOUNDS” (Anaxis Pharma Pty Ltd, priority 2021, published 2025).

Tests used:
Settings in all cases: equilibrium dissociation constant
[1] = target: human MLKL (full length) (Homo sapiens (Human), UniProt Q8NB16); test: KINOMEscan binding assay, human MLKL (full length)
Protocol: (§1) Binding affinity of the test compounds for human MLKL (full length), mouse MLKL (full length), human RIPK1 and human RIPK3 was determined using the KINOMEscan™ technology developed by DiscoverX (USA; http://www.discoverx.com). The assay was conducted according to manufacturer instructions.
(§2) Kinase assays. For most assays, kinase-tagged T7 phage strains were grown in parallel in 24-well blocks in an E. coli host derived from the BL21 strain. E. coli were grown to log-phase and infected with T7 phage from a frozen stock (multiplicity of infection=0.4) and incubated with shaking at 32° C. until lysis (90-150 minutes). The lysates were centrifuged (6,000×g) and filtered (0.2 μm) to remove cell debris. The remaining kinases were produced in HEK-293 cells and subsequently tagged with DNA for qPCR detection. […] The liganded beads were blocked with excess biotin and washed with blocking buffer (SeaBlock (Pierce), 1% BSA, 0.05% Tween 20, 1 mM DTT) to remove unbound ligand and to reduce non-specific phage binding. […] All reactions were performed in polypropylene 384-well plates in a final volume of 20 μL. […] The kinase concentration in the eluates was measured by qPCR.
(§3) An 11-point 3-fold serial dilution of each test compound was prepared in 100% DMSO at 100× final test concentration and subsequently diluted to 1× in the assay (final DMSO concentration=1%). Most Kos were determined using a compound top concentration=30,000 nM.
(§4) KD for each test compound was calculated with a standard dose-response curve using the Hill equation (equation (1)): […]
(§5) The Hill Slope was set to −1.
(§6) Curves were fitted using a non-linear least square fit with the Levenberg-Marquardt algorithm.

[2] = target: human RIPK1 (Homo sapiens (Human), UniProt Q13546); test: KINOMEscan binding assay, human RIPK1
Chain of human RIPK1 (Q13546 whole entry): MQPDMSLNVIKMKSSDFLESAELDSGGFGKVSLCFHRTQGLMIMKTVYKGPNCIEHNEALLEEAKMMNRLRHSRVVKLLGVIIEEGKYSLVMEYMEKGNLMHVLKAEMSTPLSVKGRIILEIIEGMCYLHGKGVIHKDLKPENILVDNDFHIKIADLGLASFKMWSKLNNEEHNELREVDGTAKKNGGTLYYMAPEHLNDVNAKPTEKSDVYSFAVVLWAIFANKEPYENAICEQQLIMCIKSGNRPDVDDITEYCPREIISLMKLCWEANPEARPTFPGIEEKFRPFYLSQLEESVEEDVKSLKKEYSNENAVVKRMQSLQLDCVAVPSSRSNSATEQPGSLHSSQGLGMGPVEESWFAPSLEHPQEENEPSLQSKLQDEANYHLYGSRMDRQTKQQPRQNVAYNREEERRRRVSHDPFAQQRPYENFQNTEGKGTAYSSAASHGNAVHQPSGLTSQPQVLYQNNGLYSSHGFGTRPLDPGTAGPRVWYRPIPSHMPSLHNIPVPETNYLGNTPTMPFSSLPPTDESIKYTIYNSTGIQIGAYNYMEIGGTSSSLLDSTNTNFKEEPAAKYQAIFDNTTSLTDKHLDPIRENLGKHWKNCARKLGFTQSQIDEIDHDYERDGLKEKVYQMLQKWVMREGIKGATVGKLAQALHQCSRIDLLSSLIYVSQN
Protocol: as §1, §2, §3, §4, §5, §6

[3] = target: human RIPK3 (Homo sapiens (Human), UniProt Q9Y572); test: KINOMEscan binding assay, human RIPK3
Chain of human RIPK3 (Q9Y572 whole entry): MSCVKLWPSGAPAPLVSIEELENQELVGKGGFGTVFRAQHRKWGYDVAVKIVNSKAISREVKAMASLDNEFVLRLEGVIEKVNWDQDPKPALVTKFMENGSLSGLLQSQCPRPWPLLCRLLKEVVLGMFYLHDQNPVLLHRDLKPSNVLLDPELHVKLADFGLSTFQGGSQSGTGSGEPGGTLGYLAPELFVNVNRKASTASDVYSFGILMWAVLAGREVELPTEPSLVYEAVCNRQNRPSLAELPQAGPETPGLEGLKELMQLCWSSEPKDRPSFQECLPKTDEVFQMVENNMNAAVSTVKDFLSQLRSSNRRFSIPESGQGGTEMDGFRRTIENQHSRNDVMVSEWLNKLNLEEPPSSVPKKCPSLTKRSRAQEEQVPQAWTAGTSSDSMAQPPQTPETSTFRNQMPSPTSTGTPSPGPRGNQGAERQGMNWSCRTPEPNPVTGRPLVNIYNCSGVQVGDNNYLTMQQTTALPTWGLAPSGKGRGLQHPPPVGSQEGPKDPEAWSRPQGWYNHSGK
Protocol: as §1, §2, §3, §4, §5, §6

Chain of human MLKL (full length) (Q8NB16 whole entry): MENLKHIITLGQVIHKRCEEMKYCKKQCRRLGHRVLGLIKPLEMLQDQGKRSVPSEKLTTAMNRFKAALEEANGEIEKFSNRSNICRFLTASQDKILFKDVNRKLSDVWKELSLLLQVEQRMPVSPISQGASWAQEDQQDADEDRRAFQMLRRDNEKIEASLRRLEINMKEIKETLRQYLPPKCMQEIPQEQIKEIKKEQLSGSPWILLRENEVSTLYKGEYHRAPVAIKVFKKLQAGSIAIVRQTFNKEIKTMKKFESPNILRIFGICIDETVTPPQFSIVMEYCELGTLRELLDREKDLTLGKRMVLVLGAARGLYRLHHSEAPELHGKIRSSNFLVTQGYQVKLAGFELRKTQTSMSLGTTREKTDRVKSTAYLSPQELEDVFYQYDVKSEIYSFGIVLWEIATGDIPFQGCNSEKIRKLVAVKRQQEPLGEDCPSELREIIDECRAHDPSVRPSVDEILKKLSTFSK

Row | Structure (SMILES) | Kd [1] [µM] | Kd [2] [µM] | Kd [3] [µM]
1 | C[C@H](Oc1cc(-c2cnn3ccnc(N)c23)ccc1NS(=O)(=O)C(F)F)c1ccc(F)cc1 [Compound 22, (S)—N-(4-(4-aminopyrazolo[1,5-a]pyrazin-3-yl)-2-(1-(4-fluorophenyl)ethoxy)phenyl)-1,1-difluoromethanesulfonamide] | < 0.001 | > 10 | > 10
2 | Cc1noc(C)c1-c1cnc(N)c2c(-c3ccc(NS(=O)(=O)C(F)F)c(O[C@@H](C)c4ccc(F)cc4)c3)nn(C)c12 [Compound 33, (S)-N-(4-(4-amino-7-(3,5-dimethylisoxazol-4-yl)-1-methyl-1H-pyrazolo[4,3-c]pyridin-3-yl)-2-(1-(4-fluorophenyl)ethoxy)phenyl)-1,1-difluoromethanesulfonamide] | 0.001 to 0.1 | > 10 | > 10
3 | C[C@H](Oc1cc(-c2nn(C)c3c(Cc4ccccc4)cnc(N)c23)ccc1NS(=O)(=O)C(F)F)c1ccc(F)cc1 [Compound 34, (S)-N-(4-(4-amino-7-benzyl-1-methyl-1H-pyrazolo[4,3-c]pyridin-3-yl)-2-(1-(4-fluorophenyl)ethoxy)phenyl)-1,1-difluoromethanesulfonamide] | 0.001 to 0.1 | > 10 | > 10
4 | C[C@H](Oc1cc(-c2nn(C)c3c(-c4ccnc(N(C)C)c4)cnc(N)c23)ccc1NS(=O)(=O)C(F)F)c1ccc(F)cc1 [Compound 49, (S)-N-(4-(4-amino-7-(2-(dimethylamino)pyridin-4-yl)-1-methyl-1H-pyrazolo[4,3-c]pyridin-3-yl)-2-(1-(4-fluorophenyl)ethoxy)phenyl)-1,1-difluoromethanesulfonamide] | 0.001 to 0.1 | > 10 | > 10
5 | C[C@H](Oc1cc(-c2nn(C)c3c(C4=CCCNC4)cnc(N)c23)ccc1NS(=O)(=O)C(F)F)c1ccc(F)cc1 [Compound 54, (S)—N-(4-(4-amino-1-methyl-7-(1,2,5,6-tetrahydropyridin-3-yl)-1H-pyrazolo[4,3-c]pyridin-3-yl)-2-(1-(4-fluorophenyl)ethoxy)phenyl)-1,1-difluoromethanesulfonamide] | 0.001 to 0.1 | > 10 | > 10
6 | C[C@H](Oc1cc(-c2nn(C)c3c(-c4cnn5c4CNCC5)cnc(N)c23)ccc1NS(=O)(=O)C(F)F)c1ccc(F)cc1 [Compound 90, (S)-N-(4-(4-amino-1-methyl-7-(4,5,6,7-tetrahydropyrazolo[1,5-a]pyrazin-3-yl)-1H-pyrazolo[4,3-c]pyridin-3-yl)-2-(1-(4-fluorophenyl)ethoxy)phenyl)-1,1-difluoromethanesulfonamide] | 0.001 to 0.1 | > 10 | > 10
7 | C[C@H](Oc1cc(-c2nn(C)c3c(-c4cnn5c4CN(C)CC5)cnc(N)c23)ccc1NS(=O)(=O)C(F)F)c1ccc(F)cc1 [Compound 91, (S)—N-(4-(4-amino-1-methyl-7-(5-methyl-4,5,6,7-tetrahydropyrazolo[1,5-a]pyrazin-3-yl)-1H-pyrazolo[4,3-c]pyridin-3-yl)-2-(1-(4-fluorophenyl)ethoxy)phenyl)-1,1-difluoromethanesulfonamide] | 0.1 to 10 | > 10 | > 10
8 | C[C@H](Oc1cc(-c2nn(C)c3c(-c4cnc(N5CCOCC5)nc4)cnc(N)c23)ccc1NS(=O)(=O)C(F)F)c1ccc(F)cc1 [Compound 110, (S)-N-(4-(4-amino-1-methyl-7-(2-morpholinopyrimidin-5-yl)-1H-pyrazolo[4,3-c]pyridin-3-yl)-2-(1-(4-fluorophenyl)ethoxy)phenyl)-1,1-difluoromethanesulfonamide] | < 0.001 | > 10 | > 10
9 | COC[C@@H](Oc1cc(-c2nn(C)c3c(-c4cnn(C5CCOCC5)c4)cnc(N)c23)ccc1NS(=O)(=O)C(F)F)c1ccc(F)cc1 [Compound 112, (S)—N-(4-(4-amino-1-methyl-7-(1-(tetrahydro-2H-pyran-4-yl)-1H-pyrazol-4-yl)-1H-pyrazolo[4,3-c]pyridin-3-yl)-2-(1-(4-fluorophenyl)-2-methoxyethoxy)phenyl)-1,1-difluoromethanesulfonamide] | 0.001 to 0.1 | > 10 | > 10
10 | C[C@H](Oc1cc(-c2nn(C)c3c(-c4cnc(N5CCCC5)nc4)cnc(N)c23)ccc1NS(=O)(=O)C(F)F)c1ccc(F)cc1 [Compound 114, (S)-N-(4-(4-amino-1-methyl-7-(2-(pyrrolidin-1-yl)pyrimidin-5-yl)-1H-pyrazolo[4,3-c]pyridin-3-yl)-2-(1-(4-fluorophenyl)ethoxy)phenyl)-1,1-difluoromethanesulfonamide] | 0.001 to 0.1 | > 10 | > 10
11 | C[C@H](Oc1cc(-c2nn(C)c3c(-c4cnn(C5CCOCC5)c4)cnc(N)c23)ccc1NS(=O)(=O)Cc1ccccc1)c1ccc(F)cc1 [Compound 127, (S)-N-(4-(4-amino-1-methyl-7-(1-(tetrahydro-2H-pyran-4-yl)-1H-pyrazol-4-yl)-1H-pyrazolo[4,3-c]pyridin-3-yl)-2-(1-(4-fluorophenyl)ethoxy)phenyl)-1-phenylmethanesulfonamide] | 0.001 to 0.1 |  | 

Results, then the compound that gave them:

Row | Kd [1] [µM] | Kd [2] [µM] | Kd [3] [µM] | Structure (SMILES)
12 | 0.001 to 0.1 | > 10 | > 10 | CCS(=O)(=O)Nc1ccc(-c2nn(C)c3c(NC(C)=O)cnc(N)c23)cc1OCc1ccc(F)cc1 [Compound 2, N-(4-amino-3-(4-(ethylsulfonamido)-3-((4-fluorobenzyl)oxy)phenyl)-1-methyl-1H-pyrazolo[4,3-c]pyridin-7-yl)acetamide]
13 | 0.001 to 0.1 | > 10 | > 10 | CCS(=O)(=O)Nc1ccc(-c2coc3c(-c4cnn(CCO)c4)cnc(N)c23)cc1OCc1ccc(F)cc1 [Compound 4, N-(4-(4-amino-7-(1-(2-hydroxyethyl)-1H-pyrazol-4-yl)furo[3,2-c]pyridin-3-yl)-2-((4-fluorobenzyl)oxy)phenyl)ethanesulfonamide]
14 | < 0.001 | > 10 | > 10 | Nc1ncc(-c2cnn(CCO)c2)c2occ(-c3ccc(NS(=O)(=O)C(F)F)c(OCc4ccc(F)cc4)c3)c12 [Compound 6, N-(4-(4-amino-7-(1-(2-hydroxyethyl)-1H-pyrazol-4-yl)furo[3,2-c]pyridin-3-yl)-2-((4-fluorobenzyl)oxy)phenyl)-1,1-difluoromethanesulfonamide]
15 | 0.001 to 0.1 | > 10 | > 10 | Cn1nc(-c2ccc(NS(=O)(=O)C(F)F)c(OCc3ccc(F)cc3)c2)c2c(N)nccc21 [Compound 10, N-(4-{4-amino-1-methyl-1H-pyrazolo[4,3-c]pyridin-3-yl}-2-[(4-fluorophenyl)methoxy]phenyl)-1,1-difluoromethanesulfonamide]
16 | < 0.001 | > 10 | > 10 | C[C@H](Oc1cc(-c2nn(C)c3ccnc(N)c23)ccc1NS(=O)(=O)C(F)F)c1ccc(F)cc1 [Compound 17, N-(4-{4-amino-1-methyl-1Hpyrazolo[4,3-c]pyridin-3-yl}-2-[(1S)-1-(4-fluorophenyl)ethoxy]phenyl)-1,1-difluoromethanesulfonamide]
17 | 0.1 to 10 | > 10 | > 10 | CCS(=O)(=O)Nc1ccc(-c2ncn3ccnc(N)c23)cc1OCc1ccc(F)cc1 [Compound 63, N-(4-(8-Aminoimidazo[1,5-a]pyrazin-1-yl)-2-((4-fluorophenyl)methoxy)phenyl) ethane-1-sulfonamide]
18 | 0.1 to 10 | > 10 | > 10 | CCS(=O)(=O)Nc1ccc(-c2cnn3ccnc(N)c23)cc1OCc1ccc(F)cc1 [Compound 64, N-(4-(4-Aminopyrazolo[1,5-a]pyrazin-3-yl)-2-((4-fluorophenyl)methoxy)phenyl)ethane-1-sulfonamide]
19 | 0.001 to 0.1 | > 10 | > 10 | Nc1n[nH]c2ccnc(-c3ccc(NS(=O)(=O)CC(F)(F)F)c(OCc4ccc(F)cc4)c3)c12 [Compound 65, N-(4-(3-amino-1H-pyrazolo[4,3-c]pyridin-4-yl)-2-((4-fluorophenyl)methoxy)phenyl)-2,2,2-trifluoroethane-1-sulfonamide]
20 | < 0.001 | > 10 | > 10 | Nc1n[nH]c2nccc(-c3ccc(NS(=O)(=O)CC(F)(F)F)c(OCc4ccc(F)cc4)c3)c12 [Compound 67, N-(4-(3-Amino-1H-pyrazolo[3,4-b]pyridin-4-yl)-2-((4-fluorophenyl)methoxy)phenyl)-2,2,2-trifluoroethane-1-sulfonamide]
21 | 0.1 to 10 | > 10 | > 10 | Nc1n[nH]c2ccnc(-c3ccc(NS(=O)(=O)C(F)F)c(OCc4ccc(F)cc4)c3)c12 [Compound 68, N-(4-(3-amino-1H-pyrazolo[4,3-c]pyridin-4-yl)-2-((4-fluorophenyl)methoxy)phenyl)-1,1-difluoromethanesulfonamide]
